Test results from patent US20240400555A1 (Initial Therapeutics, Inc., priority 2023, published 2024).
pIC50: −log10 of the molar value.

Test system: MV-4-11 cells
Experiment: Cell Viability Assay in MV-4-11 Cells
Format: cell-based
Conditions: Homo sapiens, MV4-11, 72 h, MV-4-11 cells, 72 h, Cell-Titer Glo; read-out: IC50
Method in brief: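 MV-4-11 cells at 7,000/well in IMDM with 10% FBS, exposed to compound for 72 h. Viability by CellTiter-Glo luminescence, normalized to DMSO as 100%, fitted with a four-parameter curve.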

| Compound | pIC50 |
| --- | --- |
| Cc1cccc2ccnc(N(C(=O)c3ccc(Nc4ncncn4)cc3F)[C@@H]3CCCNC3)c12 [Example 473, (R)-4-((1,3,5-triazin-2-yl)amino)-2-fluoro-N-(8-methylisoquinolin-1-yl)-N-(piperidin-3-yl)benzamide] | 6.52 |
| Cc1cccc2ccnc(N(C(=O)c3cccc(C#CCCN4C(=O)c5ccccc5C4=O)c3)[C@@H]3CCCNC3)c12 [Example 588, (R)-3-(4-(1,3-dioxoisoindolin-2-yl)but-1-yn-1-yl)-N-(8-methylisoquinolin-1-yl)-N-(piperidin-3-yl)benzamide] | 6.10 |
| CCc1cc(-c2cc3c(N(C(=O)c4ccc(-n5nnc6cccnc65)cc4F)[C@@H]4CCCNC4)nccc3s2)ccn1 [Example 461, N-[2-(2-ethyl-4-pyridyl)thieno[3,2-c]pyridin-4-yl]-2-fluoro-N-[(3R)-3-piperidyl]-4-(triazolo[4,5-b]pyridin-3-yl)benzamide] | 6.14 |
| Cn1cc(-c2ccc(C(=O)N(c3nccc4cc(-c5cccnc5)ccc34)[C@@H]3CCCNC3)c(F)c2)nn1 [Example 370, (R)-2-fluoro-4-(1-methyl-1H-1,2,3-triazol-4-yl)-N-(piperidin-3-yl)-N-(6-(pyridin-3-yl)isoquinolin-1-yl)benzamide] | 6.74 |
| Cc1cccc2ccnc(N(C(=O)c3ccc(N4CCOc5cccnc54)cc3F)[C@@H]3CCCNC3)c12 [Example 646, 4-(2,3-dihydropyrido[3,2-b][1,4]oxazin-4-yl)-2-fluoro-N-(8-methyl-1-isoquinolyl)-N-[(3R)-3-piperidyl]benzamide] | 5.66 |
| Cn1cc(-c2ccc(C(=O)N(c3nccc4cc(-c5cccc(CO)c5)ccc34)[C@@H]3CCCNC3)c(F)c2)nn1 [Example 490, (R)-2-fluoro-N-(6-(3-(hydroxymethyl)phenyl)isoquinolin-1-yl)-4-(1-methyl-1H-1,2,3-triazol-4-yl)-N-(piperidin-3-yl)benzamide] | 6.52 |
| Cn1cc(-c2ccc(C(=O)N(c3nccc4sc(/C=C\CO)cc34)[C@@H]3CCCNC3)c(F)c2)nn1 [Example 504, (R,Z)-2-fluoro-N-(2-(3-hydroxyprop-1-en-1-yl)thieno[3,2-c]pyridin-4-yl)-4-(1-methyl-1H-1,2,3-triazol-4-yl)-N-(piperidin-3-yl)benzamide] | 6.09 |
| Cc1nn(C)c(-c2ccc(C(=O)N(c3nccc4cccc(C)c34)[C@@H]3CCCNC3)c(F)c2)c1N [Example 392, 4-(4-amino-2,5-dimethyl-pyrazol-3-yl)-2-fluoro-N-(8-methyl-1-isoquinolyl)-N-[(3R)-3-piperidyl]benzamide] | 6.08 |
| Cc1cccc2ccnc(N(C(=O)c3ccc(Nc4ncccn4)cc3)[C@@H]3CCCNC3)c12 [Example 309, (R)—N-(8-methylisoquinolin-1-yl)-N-(piperidin-3-yl)-4-(pyrimidin-2-ylamino)benzamide] | 6.55 |
| O=C(c1ccc(-n2nnc3cccnc32)cc1F)N(c1nccc2sc(-c3ccnc(C(F)(F)F)c3)cc12)[C@@H]1CCCNC1 [Example 462, 2-fluoro-N-[(3R)-3-piperidyl]-4-(triazolo[4,5-b]pyridin-3-yl)-N-[2-[2-(trifluoromethyl)-4-pyridyl]thieno[3,2-c]pyridin-4-yl]benzamide] | 6.00 |
| CNC(=O)C#Cc1cc2c(N(C(=O)c3ccc(-n4nnc5cccnc54)cc3F)[C@@H]3CCCNC3)nccc2s1 [Example 549, 2-fluoro-N-[2-[3-(methylamino)-3-oxo-prop-1-ynyl]thieno[3,2-c]pyridin-4-yl]-N-[(3R)-3-piperidyl]-4-(triazolo [4,5-b]pyridin-3-yl)benzamide] | 5.82 |
| NC(=O)c1ccc2c(N(C(=O)c3ccc(-n4nnc5cccnc54)cc3F)[C@@H]3CCCNC3)nccc2c1 [Example 453, (R)-1-(4-(3H-[1,2,3]triazolo[4,5-b]pyridin-3-yl)-2-fluoro-N-(piperidin-3-yl)benzamido)isoquinoline-6-carboxamide] | 6.70 |
| NC(=O)c1cc(-c2cc3c(N(C(=O)c4ccc(-n5nnc6cccnc65)cc4F)[C@@H]4CCCNC4)nccc3s2)cs1 [Example 568, 4-[4-[[2-fluoro-4-(triazolo[4,5-b]pyridin-3-yl)benzoyl]-[(3R)-3-piperidyl]amino]thieno[3,2-c]pyridin-2-yl]thiophene-2-carboxamide] | 7.05 |
| Cc1cccc2ccnc(N(C(=O)c3ccc(Nc4nccc(C5CCNCC5)n4)cc3F)[C@@H]3CCCNC3)c12 [Example 662, (R)-2-fluoro-N-(8-methylisoquinolin-1-yl)-N-(piperidin-3-yl)-4-((4-(piperidin-4-yl)pyrimidin-2-yl)amino)benzamide] | 6.40 |
| Cc1cccc2ccnc(N(C(=O)c3ccc(Nc4nccc(N5CCC(=O)CC5)n4)cc3F)[C@@H]3CCCNC3)c12 [Example 719, (R)-2-fluoro-N-(8-methylisoquinolin-1-yl)-4-((4-(4-oxopiperidin-1-yl)pyrimidin-2-yl)amino)-N-(piperidin-3-yl)benzamide] | 7.85 |
| CC(C)n1nccc1-c1ccc2c(N(C(=O)c3ccc(-n4nnc5cccnc54)cc3F)[C@@H]3CCCNC3)nccc2c1 [Example 439, (R)-4-(3H-[1,2,3]triazolo[4,5-b]pyridin-3-yl)-2-fluoro-N-(6-(1-isopropyl-1H-pyrazol-5-yl)isoquinolin-1-yl)-N-(piperidin-3-yl)benzamide] | 5.92 |
| Cn1cc(-c2ccc(C(=O)N(c3nccc4cc(-c5ccnc(N)c5)ccc34)[C@@H]3CCCNC3)c(F)c2)nn1 [Example 491, (R)—N-(6-(2-aminopyridin-4-yl)isoquinolin-1-yl)-2-fluoro-4-(1-methyl-1H-1,2,3-triazol-4-yl)-N-(piperidin-3-yl)benzamide] | 6.34 |

Other lines, results leading:

| pIC50 | Compound |
| --- | --- |
| 6.01 | Cc1nnc(-c2ccc(C(=O)N(c3nccc4cc(Cl)ccc34)[C@@H]3CCCNC3)c(F)c2)o1 [Example 788, (R)—N-(6-chloroisoquinolin-1-yl)-2-fluoro-4-(5-methyl-1,3,4-oxadiazol-2-yl)-N-(piperidin-3-yl)benzamide] |
| 6.89 | [2H]C([2H])([2H])c1nnc(-c2ccc(C(=O)N(c3nccc4cc(C)cc(C)c34)[C@@H]3CCCNC3)cc2)s1 [Example 907, N-(6,8-dimethyl-1-isoquinolyl)-N-[(3R)-3-piperidyl]-4-[5-(trideuteriomethyl)-1,3,4-thiadiazol-2-yl]benzamide] |
| 6.40 | C=C(C)c1cccnc1N(C(=O)c1ccc(Nc2ncccn2)cc1F)[C@@H]1CCCNC1 [Example 930, (R)-2-fluoro-N-(piperidin-3-yl)-N-(3-(prop-1-en-2-yl)pyridin-2-yl)-4-(pyrimidin-2-ylamino)benzamide] |
| 7.26 | COc1cc(C)c2c(N(C(=O)c3ccc(-c4cn(C)nn4)cc3)[C@@H]3CCCNC3)nccc2c1 [Example 858, N-(6-methoxy-8-methyl-1-isoquinolyl)-4-(1-methyltriazol-4-yl)-N-[(3R)-3-piperidyl]benzamide] |
| 7.28 | COCCn1cc(-c2ccc(C(=O)N(c3nccc4cc(F)cc(C)c34)[C@@H]3CCCNC3)c(F)c2)nn1 [Example 850, 2-fluoro-N-(6-fluoro-8-methyl-1-isoquinolyl)-4-[1-(2-methoxyethyl)triazol-4-yl]-N-[(3R)-3-piperidyl]benzamide] |
| 5.36 | NC(=O)c1ccc(-c2cc3c(N(C(=O)c4ccc(-n5cnc6ccccc65)cc4F)[C@@H]4CCCNC4)nccc3s2)cc1 [Example 826, 4-(benzimidazol-1-yl)-N-[2-(4-carbamoylphenyl)thieno[3,2-c]pyridin-4-yl]-2-fluoro-N-[(3R)-3-piperidyl]benzamide] |
| 7.47 | Cc1cc(Cl)cc2ccnc(N(C(=O)c3ccc(-c4nnn(C)c4C)cc3F)[C@@H]3CCCNC3)c12 [Example 763, (R)—N-(6-chloro-8-methylisoquinolin-1-yl)-4-(1,5-dimethyl-1H-1,2,3-triazol-4-yl)-2-fluoro-N-(piperidin-3-yl)benzamide] |
| 6.54 | Cc1nnc(-c2ccc(C(=O)N(c3nccc4cc(F)cc(C)c34)[C@@H]3CCCNC3)nc2)s1 [Example 784, (R)—N-(6-fluoro-8-methylisoquinolin-1-yl)-5-(5-methyl-1,3,4-thiadiazol-2-yl)-N-(piperidin-3-yl)picolinamide] |
| 6.74 | Cc1cccc2ccnc(N(C(=O)c3ccc(-c4nnc(CCC#N)s4)cc3)[C@@H]3CCCNC3)c12 [Example 880, 4-[5-(2-cyanoethyl)-1,3,4-thiadiazol-2-yl]-N-(8-methyl-1-isoquinolyl)-N-[(3R)-3-piperidyl]benzamide] |
| < 5.20 | C=C(C)c1ccnc(N(C(=O)c2ccc(-c3cn(C)nn3)cc2F)[C@@H]2CCCNC2)c1 [Example 887, 2-fluoro-N-(4-isopropenyl-2-pyridyl)-4-(1-methyltriazol-4-yl)-N-[(3R)-3-piperidyl]benzamide] |
| 6.89 | [2H]C([2H])([2H])c1nnc(-c2ccc(C(=O)N(c3nccc4scc(C)c34)[C@@H]3CCCNC3)cc2)s1 [Example 894, N-(3-methylthieno[3,2-c]pyridin-4-yl)-N-[(3R)-3-piperidyl]-4-[5-(trideuteriomethyl)-1,3,4-thiadiazol-2-yl]benzamide] |
| 6.36 | Cc1sc2ccnc(N(C(=O)c3ccc(-c4cn(C)nn4)cc3F)[C@@H]3CCCNC3)c2c1C [Example 831, (R)—N-(2,3-dimethylthieno[3,2-c]pyridin-4-yl)-2-fluoro-4-(1-methyl-1H-1,2,3-triazol-4-yl)-N-(piperidin-3-yl)benzamide] |
| 6.85 | Cc1nnc(-c2ccc(C(=O)N(c3nccc4cc(Cl)cc(C)c34)[C@@H]3CCCNC3)nc2)s1 [Example 801, (R)—N-(6-chloro-8-methylisoquinolin-1-yl)-5-(5-methyl-1,3,4-thiadiazol-2-yl)-N-(piperidin-3-yl)picolinamide] |
| 7.20 | Cc1cccc2ccnc(N(C(=O)c3ccc(Nc4nccc(N5CCS(=O)(=O)CC5)n4)cc3F)[C@@H]3CCCNC3)c12 [Example 935, (R)-4-((4-(1,1-dioxidothiomorpholino)pyrimidin-2-yl)amino)-2-fluoro-N-(8-methylisoquinolin-1-yl)-N-(piperidin-3-yl)benzamide] |
